{"source": "paper PMC5800995", "about": "(Biochemical pharmacology, 2018)", "target": "human D2LR E95^2.65A (Homo sapiens, UniProt P14416, E95A)", "sequence (P14416 whole entry E95A)": "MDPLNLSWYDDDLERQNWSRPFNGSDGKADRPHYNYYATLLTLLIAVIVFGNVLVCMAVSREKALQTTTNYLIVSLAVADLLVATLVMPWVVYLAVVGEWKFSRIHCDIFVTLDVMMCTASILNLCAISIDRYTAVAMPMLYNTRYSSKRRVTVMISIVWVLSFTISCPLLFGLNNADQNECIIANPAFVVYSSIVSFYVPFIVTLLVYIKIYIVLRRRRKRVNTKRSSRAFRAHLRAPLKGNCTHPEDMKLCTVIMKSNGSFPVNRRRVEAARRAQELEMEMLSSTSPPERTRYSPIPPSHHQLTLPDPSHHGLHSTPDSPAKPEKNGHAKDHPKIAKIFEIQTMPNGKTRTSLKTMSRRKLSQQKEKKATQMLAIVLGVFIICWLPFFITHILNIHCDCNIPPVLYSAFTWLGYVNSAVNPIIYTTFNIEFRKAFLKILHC", "test": "ERK1/2 phosphorylation, E95^2.65A", "assay_type": "cell-based", "conditions": "for Kb: read-out: KB Function (pERK1/2); for Schild slope: dopamine-mediated pERK1/2, competitive model"}
{"smiles": "O=C(N[C@H]1CC[C@H](CCN2CCc3ccccc3C2)CC1)c1cc2ccccc2[nH]1", "note": "[MIPS1278]", "values": [{"measurement": "Logαβ (net cooperativity with dopamine)", "result": "−0.30 ± 0.20"}, {"measurement": "fold loss in functional affinity vs WT", "result": 709, "unit": "fold"}, {"measurement": "pKB Function (pERK1/2)", "result": "4.21 ± 0.15"}, {"measurement": "αβ (net cooperativity with dopamine)", "result": 0.50}, {"measurement": "fold loss in negative cooperativity with dopamine vs WT", "setting": "pERK1/2", "result": 6, "unit": "fold"}, {"measurement": "Kb", "result": 61.7, "unit": "µM"}]}
{"smiles": "N#Cc1ccc2c(c1)CN(CCC1CCC(NC(=O)c3nc4ccccc4o3)CC1)CC2", "note": "(stereo not drawn) [MIPS1528]", "values": [{"measurement": "pKB Function (pERK1/2)", "result": "5.92 ± 0.07"}, {"measurement": "Schild slope", "result": "1.68 ± 0.10"}, {"measurement": "Kb", "result": 1.2, "unit": "µM"}]}
{"smiles": "O=C(N[C@H]1CC[C@H](CCN2CCc3ccc(Br)cc3C2)CC1)c1cc2ccccc2[nH]1", "note": "[MIPS1556]", "values": [{"measurement": "pKB Function (pERK1/2)", "result": "5.96 ± 0.12"}, {"measurement": "Schild slope", "result": "1.08 ± 0.09"}]}
{"smiles": "N#Cc1ccc2c(c1)CN(CCC1CCC(NC(=O)c3ccc[nH]3)CC1)CC2", "note": "(stereo not drawn) [MIPS1576]", "values": [{"measurement": "Logαβ (net cooperativity with dopamine)", "result": "−1.24 ± 0.10"}, {"measurement": "fold loss in functional affinity vs WT", "result": 24, "unit": "fold"}, {"measurement": "pKB Function (pERK1/2)", "result": "7.02 ± 0.15"}, {"measurement": "αβ (net cooperativity with dopamine)", "result": 0.06}, {"measurement": "Kb", "result": 0.095, "unit": "µM"}]}
{"smiles": "N#Cc1ccc2c(c1)CN(CCC1CCC(NC(=O)c3cc4cccnc4[nH]3)CC1)CC2", "note": "(stereo not drawn) [MIPS1588]", "values": [{"measurement": "Logαβ (net cooperativity with dopamine)", "result": "−1.12 ± 0.16"}, {"measurement": "fold loss in functional affinity vs WT", "result": 27, "unit": "fold"}, {"measurement": "pKB Function (pERK1/2)", "result": "5.90 ± 0.20"}, {"measurement": "αβ (net cooperativity with dopamine)", "result": 0.08}, {"measurement": "Kb", "result": 1.26, "unit": "µM"}]}
